A short description of the first series: in vitro. The note with it: human, hela cells, % viability.
The term viability denotes a read-out of living cells in per cent, often relative to untreated cells. Turning to `COc1ccccc1CN(C1CCNCC1)S(=O)(=O)c1c(Cl)cccc1Cl` [CBK160807T], the viability at 28.5 h, 10 µM stood at 89.2%. Still for that read-out and setting: in the case of `Brc1c(OCc2ccccc2)ccc2[nH]ccc12` [CBK160845] it was 96.5%; in that of `NC(=O)CCNC(=O)C1(c2ccccc2)CCCC1` [CBK160929], 104%.

In the case of `NCCNC(=O)c1cc(-c2ccc(Cl)cc2)[nH]n1` [CBK160975], the viability at 28.5 h, 10 µM was determined as 110%.

In the case of `NCC(O)CNC(=O)c1cc(-c2ccc(Cl)cc2)[nH]n1` (stereo not drawn) [CBK160977], the viability at 28.5 h, 10 µM was 87%. The same measure, in the same setting: in the case of `CCc1ccc(CNC(=O)Cn2nnc(-c3ccc(CNCC4CC4)cc3)n2)cc1` [CBK161032C] it was 109%; in that of `COc1cccc(CN2CCOC3(CCN(C(=O)OCc4ccccc4)CC3)C2)c1` [CBK161098T], 95.4%; in that of `COc1cc(CN2CCOC3(CCN(C(=O)OCc4ccccc4)CC3)C2)cc(OC)c1OC` [CBK161104T], 79.4%. The same measure, in the same setting: the same measure for `O=C(OCc1ccccc1)N1CCC2(CC1)CN(c1ccc([N+](=O)[O-])cn1)CCO2` [CBK161111T]: 92%; for `Cc1cc(C)c(C#N)c(N2CCOC3(CCN(C(=O)OCc4ccccc4)CC3)C2)n1` [CBK161114T]: 91%; for `COc1cc(OC)nc(CN2CCOC3(CCN(C(=O)c4ccc5ccccc5c4)CC3)C2)n1` [CBK161121A]: 91.6%.

In the case of `O=C(O)c1cccc(S(=O)(=O)Nc2nc3c(Cl)cccc3s2)c1` [CBK161135], the viability at 28.5 h, 10 µM came out at 96.5%. The same measure, in the same setting: in the case of `CCOc1ccc2nc(NS(=O)(=O)c3cccc(C(=O)O)c3)sc2c1` [CBK161137] it was 102%. Still for that read-out and setting: in the case of `O=C(O)c1cccc(S(=O)(=O)Nc2nc3ccccc3s2)c1` [CBK161138] it was 102%; in that of `O=C(O)C1CCCN(C(=O)NCc2ccc3c(c2)OCO3)C1` (stereo not drawn) [CBK161346], 93.4%. Same read-out and setting: in the case of `O=C(O)C1CCCN(C(=O)NCc2ccc(F)cc2)C1` (stereo not drawn) [CBK161364] it was 95.7%. As for `O=C(O)C1CCCN(C(=O)NCCOc2ccccc2)C1` (stereo not drawn) [CBK161366], the viability at 28.5 h, 10 µM was 115%. Same read-out and setting: in the case of `COc1ccc(CCNC(=O)N2CCCC(C(=O)O)C2)cc1` (stereo not drawn) [CBK161367] it was 101%; in that of `Cc1ccc(NC(=O)N2CCCC(C(=O)O)C2)cc1` (stereo not drawn) [CBK161371], 89.5%.

As for `CCOC(=O)CCCNC(=O)N1CCCC(C(=O)O)C1` (stereo not drawn) [CBK161374], the viability at 28.5 h, 10 µM turned out to be 83.5%.

With `O=C(O)C1CCCN1C(=O)Nc1ccccc1Cl` (stereo not drawn) [CBK161381], the viability at 28.5 h, 10 µM was 95.8%. The same measure, in the same setting: in the case of `COc1ccc(CCNC(=O)N2CCCC2C(=O)O)cc1` (stereo not drawn) [CBK161386] it was 116%; in that of `COc1cc(C(=O)N2CCC(N(C)C)C2)ccc1Nc1cncc(-c2cc3ccccc3[nH]2)n1` (stereo not drawn) [CBK161475], 90.6%. With `COc1cccc2cc(C(=O)NCc3ccc(NS(C)(=O)=O)cc3)oc12` [CBK161479], the viability at 28.5 h, 10 µM stood at 70.8%. Still for that read-out and setting: in the case of `CC(C)c1ccc(/C=C/C(=O)NCc2ccc(S(N)(=O)=O)cc2)cc1` [CBK161511] it was 110%.

The same series, now with this note: human, hela cells, % viability, bulk resorufin, single well.
For the compound `CS(=O)(=O)c1ccc(-c2ccc3c(c2)COC2(CCN(C(=O)CCCc4ccc(F)cc4)CC2)O3)cc1` [CBK160586], the viability at 28.5 h, 10 µM came out at 92.5%.

On to `CS(=O)(=O)c1ccc(-c2ccc3c(c2)COC2(CCN(C(=O)CC4CCCCC4)CC2)O3)cc1` [CBK160589], for which the viability at 28.5 h, 10 µM was 96.7%. On the same count and under the same terms, in the case of `CS(=O)(=O)c1ccc(-c2ccc3c(c2)COC2(CCN(C(=O)Cc4cccc(C(F)(F)F)c4)CC2)O3)cn1` [CBK160595] it was 114%; in that of `CS(=O)(=O)c1ccc(-c2ccc3c(c2)COC2(CCN(C(=O)CC4CCCCC4)CC2)O3)cn1` [CBK160596], 93.3%. Consider `CC(C)(N)C(=O)N1CCC2(CC1)OCc1cc(-c3ccc(S(C)(=O)=O)nc3)ccc1O2` [CBK160868], for which the viability at 28.5 h, 10 µM stood at 93.3%.

The values above are taken from publication PMC12040169 (PLOS Biology, 2025).
